From US20110171328A1, “PHARMACEUTICAL COMPOSITION FOR TREATING DIABETES” (priority 2008, published 2011)

Experiments:
α-D-glucosidase = assay: Determination of α-D-glucosidase inhibitory activity (PNPG colorimetry at 400 nm); type: biochemical; details: 30 μL inhibitor sample solution in total, from 5 μmol/mL stock solutions, total amount of DNJ and Fag constant, 37° C.
Text: Determination of α-D-glucosidase inhibitory activity of the combination compatibility of 1-deoxynojirimycin and fagomine. 1. Medicines: 1-deoxynojirimycin and fagomine, homemade. 2. Reagents: potassium dihydrogen phosphate, sodium hydroxide, sodium bicarbonate, para-nitrophenyl glucoside (PNPG), reduced glutathione and α-D-glucosidase sucrose. 3. Instrument: TU-1901 UV-Vis spectrophotometer. 4. Test method and results (1) Preparation of potassium phosphate buffer solution: dissolve 0.68120 g of potassium dihydrogen phosphate in 25 mL of distilled water, obtain stock solution 1, dissolve 0.2 g of NaOH in 25 mL of the distilled water, obtain stock solution 2, suck the stock solution 1 (25 mL), add into the stock solution 2 (11.8 mL), shake up, dilute to 100 mL and obtain the potassium phosphate buffer solution. (2) Na2CO[…] solution: […] Take 250 μL of the 1-deoxynojirimycin stock solution, dilute to 1 mL with the distilled water, and obtain the stock solution 1. Take 250 μL of the fagomine stock solution, dilute to 1 mL with the distilled water, and obtain the stock solution 2. […] (9) Determination reaction of α-D-glucosidase inhibitory activity Add the reagents according to the sequence in Table 1 for reaction, determine the absorbance value and calculate the α-glycosidase inhibition ratio of a sample according to the following formula: [formula] […]

[1] = test system: NOD mice with spontaneous hyperglycemia; assay: Blood glucose of mice with spontaneous hyperglycemia after 14 days intragastric administration; type: in vivo; details: for Blood glucose after administration: 1 h after administration at day 14, fasted 6 h, X ± SD; for Blood glucose before administration: n=10, X ± SD
Experimental: (§1) Impacts of the composition in different doses on blood glucose and serum insulin of mice with spontaneous hyperglycemia
(§2) 1, Medicines: 1-deoxynojirimycin and fagomine, prepared by the inventor. The two are prepared into the required concentrations with distilled water before the test (the sum of the concentrations of the 1-deoxynojirimycin and the fagomine in the composition is the same as the concentration of the fagomine or the 1-deoxynojirimycin which is prepared alone). Glibenclamide is obtained from Hunan Dongting Pharmaceutical Co., Ltd. 2. Animals: NOD mice with the weight of 25-35 g, provided by Experimental Animal Center, Peking University Health Science Center. Determine the blood glucose before the test and select the animals with the blood glucose value of above 11.1 mmol/L for carrying out the test. 3. Determination instrument: Yicheng blood glucose tester, developed by Beijing Yicheng Bioelectronic Technology Co., Ltd. 4. Main reagents: ^125I-insulin radioimmunoassay kit, produced by Department of Isotopes, China Institute of Atomic Energy. 5. Test method and results (1) Impacts on the blood glucose of the mice: determine the blood glucose of the NOD mice after fasting for 6 h, select 70 animals with blood glucose above 11.1 mmol/L, randomly divide into seven groups, respectively carry out intragastric administration and give the following medicines: i) control group (distilled water); ii) glibenclamide group (50 mg/kg); and iii)-v) composition in different mixing ratios (20 mg/kg, with different medicine proportions and constant total amount). Carry out the continuous administration for 14 days, fast for 6 h before the administration at the 14th day, draw blood from the animals 1 h after the administration, use the Yicheng blood glucose tester to determine the blood glucose value of the animals, and determine the serum insulin by radioimmunoassay.

[2] = test system: NOD mice with spontaneous hyperglycemia; assay: Serum insulin of mice with spontaneous hyperglycemia (radioimmunoassay); type: in vivo; details: for Serum insulin: 1 h after administration at day 14, X ± SD; for Effect on serum insulin of the NOD mice, result in words: 20 mg/kg, 14 days
Experimental: as §1, §2

[3] = test system: SD rats with streptozotocin-induced hyperglycemia; assay: Blood glucose of rats with streptozotocin-induced hyperglycemia after intragastric sucrose; type: in vivo; details: STZ rats, 60 mg/kg intragastric for 14 days
Experimental: Medicines: 1-deoxynojirimycin-fagomine mixture (2:1), homemade. The mixture is prepared to the required concentration with distilled water before the test. Glucobay is obtained from Bayer Healthcare Co., Ltd. Catechin, ginkgo biloba extract and flavonoids from mulberry leaves were obtained from Hunan Geneham Biomedical Technology Ltd. 2. Animals: SD rats with the weight of 180-220 g, half male and half female, provided by Hunan Institute of Pharmaceutical Industry Research. Modeling method: carry out small dose intravenous injection of 25 mg/kg of streptozotocin on the rats after fasting for 24 h, once a week, simultaneously heat feed for feeding, induce H type diabetes, determine the blood glucose 1 week after the second injection, and select the animals with the fasting blood glucose of above 7.8 mmol/L for carrying out the test. […] Reagents: streptozotocin, product of Sigma Company, USA. Use citric acid buffer solution (PH=4.0) before modeling, and prepare at low temperature; sucrose, analytically pure. […] PLUS blood glucose monitoring meter. […]

[4] = 20 mg/kg intragastric for 14 days
[5] = 50 mg/kg intragastric for 14 days

Row | Molecule | α-glycosidase inhibition ratio % (α-D-glucosidase) [%] | Blood glucose after administration [1, 4] [mmol/L] | Blood glucose before administration ([1]; 20 mg/kg intragastric) [mmol/L] | Effect on blood glucose of the NOD mice, result in words ([1]; 20 mg/kg, 14 days) | Serum insulin [2, 4] [MIU/L] | Effect on serum insulin of the NOD mice, result in words [2] | Blood glucose after administration [1, 5] [mmol/L] | Blood glucose before administration ([1]; 50 mg/kg intragastric) [mmol/L] | Serum insulin [2, 5] [MIU/L] | Blood glucose value of rats with hyperglycemia, after administration ([3]; day 14, 1.0 h after 5.0 g/kg sucrose) [mmol/L] | Blood glucose value of rats with hyperglycemia, before administration ([3]; day 14, fasted 6 h, before sucrose administration) [mmol/L]
1 | OCC1NCC(O)C(O)C1O (stereo not shown) [DNJ] | 44 | 10.60 ± 2.13 | 14.20 ± 1.33 | significantly reduce the blood glucose | 16.14 ± 2.63 | little effect |  |  |  |  | 
2 | OC[C@H]1NCC[C@@H](O)[C@@H]1O [Fagomine, fagomine] | 21 | 12.24 ± 1.62 | 13.49 ± 1.65 |  | 21.78 ± 3.34 | significantly improve the serum insulin level |  |  |  |  | 
3 | COc1ccc(Cl)cc1C(=O)NCCc1ccc(S(=O)(=O)NC(=O)NC2CCCCC2)cc1 [Glibenclamide] |  |  |  |  |  |  | 10.57 ± 2.17 | 13.26 ± 2.26 | 22.57 ± 3.05 |  | 
4 | Catechin |  |  |  |  |  |  |  |  |  | 14.10 ± 1.50 | 9.17 ± 0.89
